Measurements as given in US8227452B2, “Use of a steroid prodrug for the treatment of disease of the posterior segment of the eye” (Novagali Pharma SA, priority 2006, dated 2012).
Where two headings read alike, the source gives them in different places. Each block holds one molecule with its values, some of them ahead of it.

Legend:
[1] = cited from earlier work
[2] = rabbit, in vivo
Source text: Analytes and internal standard (roxithromycine) were extracted from the tissues using acetonitrile and separated by reverse phase liquid chromatography with a C8 column and a gradient mobile phase. […] The unweighed linear model was applied.

[3] = implantation of 0.59 mg or 2.1 mg, noninfectious posterior uveitis patients; cited from earlier work
[4] = high-dose intraocular, long-term follow-up; cited from earlier work
[5] = 0.59 mg intravitreal implant, patients with diabetic macular edema; cited from earlier work
[6] = subtenon administration; cited from earlier work
[7] = single oral administration of 7.5 mg dexamethasone

Concentration in choroid, mean ([2]; 1 days): 12 nmol/g | Concentration in retina, mean ([2]; 1 days): 7 nmol/g | Concentration in choroid, mean ([2]; 7 days): 12 nmol/g | Concentration in retina, mean ([2]; 7 days): 11 nmol/g | Concentration in choroid, mean ([2]; 14 days): 9 nmol/g | Concentration in retina, mean ([2]; 14 days): 6 nmol/g | Concentration in choroid, mean ([2]; 28 days): 4 nmol/g | Concentration in retina, mean ([2]; 28 days): 4 nmol/g | Concentration in aqueous humor, mean ([2]; 60 days): 0 nmol/g | Concentration in choroid, mean ([2]; 60 days): 3 nmol/g | Concentration in retina, mean ([2]; 60 days): 2 nmol/g
Structure (SMILES): C[C@@H]1C[C@H]2[C@@H]3CCC4=CC(=O)C=C[C@]4(C)[C@@]3(F)[C@@H](O)C[C@]2(C)[C@@]1(O)C(=O)CO [D, dexamethasone]
Dexamethasone penetration into the vitreous humour ([1]; repeated topical application: 1 drop of 0.1% dexamethasone phosphate drops hourly for 10 hours): less than 2 ng/ml | Serum level [1, 7]: 60 ng/mL | Vitreous level [1, 7]: 5 ng/mL

Structure (SMILES): CC1(C)O[C@@H]2C[C@H]3[C@@H]4C[C@H](F)C5=CC(=O)C=C[C@]5(C)[C@@]4(F)[C@@H](O)C[C@]3(C)[C@]2(C(=O)CO)O1 [fluocinolone acetonide]
Augmentation of the need of IOP lowering agents [3]: 5 fold | Eyes developing elevated IOP [4]: 100% | Eyes requiring implant removal [4]: approximately 60% | Eyes showing nonischemic central retinal vein occlusion [4]: 30% | Serious cataract progression [5]: 43.1% | Serious intraocular pressure rise [5]: 8.6%

Structure (SMILES): CC1(C)O[C@@H]2C[C@H]3[C@@H]4CCC5=CC(=O)C=C[C@]5(C)[C@@]4(F)[C@@H](O)C[C@]3(C)[C@]2(C(=O)CO)O1 [triamcinolone acetonide]
Patients with intraocular pressure rise [6]: 21%
